Test results published in article PMC12198282, “Application of a high-density microelectrode array assay using a 3D human iPSC-derived brain microphysiological system model for in vitro neurotoxicity screening of environmental compounds” (Archives of Toxicology, 2025).
“Also recorded” adds a separate entry of the source. Like-named read-outs stand apart in the source and are kept apart here.

Columns and labels:
[1] = tested on: human iPSC-derived 3D BrainSpheres; test: BrainSphere MEA assay (HD-MEA, 13-day exposure, concentration-response); type: cell-based; settings: for EC (benchmark response 1.349 SD) / AC50: Homo sapiens; for EC (benchmark response 1.349 SD): 312 h; for hitc Mean.Spheroid.Burst.Duration: key: 1 (active); 0 (inactive); for hitc Mean.Spheroid.Burst.ISI: key: 1 (active); 0 (inactive); for hitc Mean.Spheroid.Burst.Peak.Firing.Rate: key: 1 (active); 0 (inactive); for hitc Mean.Spheroid.Firing.Rate: key: 1 (active); 0 (inactive); for hitc Mean.Spheroid.IBI: key: 1 (active); 0 (inactive); for hitc Mean.Spheroid.Nonburst.ISI: key: 1 (active); 0 (inactive); for hitc Mean.Spheroid.Spikes.per.Burst.per.Electrode: key: 1 (active); 0 (inactive); for hitc Mean.Spheroid.Spikes.per.Burst: key: 1 (active); 0 (inactive); for hitc Spheroid.Burst.Frequency: key: 1 (active); 0 (inactive); for hitc Spheroid.Spike.Amplitude.90th.Percentile: key: 1 (active); 0 (inactive)
Summary of the method: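 7-week-differentiated BrainSpheres were plated on laminin/poly-D-lysine-coated HD-MEA chips and given 2 days to attach. Neural activity was recorded from the same regions of interest through a 13-day exposure, from day 0 onward. Ten network and general activity endpoints were derived per BrainSphere, with ≥3 biological replicates.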

[2] = tested on: 2D rat cortical cultures; settings: cited from earlier work; for Bioactivity in the rNFA (in words): ref Brown et al. [2016], Carstens et al. [2022], Frank et al. [2017b], Shafer et al. [2019], ToxCast invitrodb (v4.2); for hitc CCTE Shafer MEA dev active electrodes number: key: 1 (active); 0 (inactive); for hitc CCTE Shafer MEA dev burst duration mean: key: 1 (active); 0 (inactive); for hitc CCTE Shafer MEA dev burst rate: key: 1 (active); 0 (inactive); for hitc CCTE Shafer MEA dev bursting electrodes number: key: 1 (active); 0 (inactive); for hitc CCTE Shafer MEA dev correlation coefficient mean: key: 1 (active); 0 (inactive); for hitc CCTE Shafer MEA dev firing rate mean: key: 1 (active); 0 (inactive); for hitc CCTE Shafer MEA dev inter network spike interval mean: key: 1 (active); 0 (inactive); for hitc CCTE Shafer MEA dev interburst interval mean: key: 1 (active); 0 (inactive); for hitc CCTE Shafer MEA dev mutual information norm: key: 1 (active); 0 (inactive); for hitc CCTE Shafer MEA dev network spike duration std: key: 1 (active); 0 (inactive); for hitc CCTE Shafer MEA dev network spike number: key: 1 (active); 0 (inactive); for hitc CCTE Shafer MEA dev network spike peak: key: 1 (active); 0 (inactive); for hitc CCTE Shafer MEA dev per burst interspike interval: key: 1 (active); 0 (inactive); for hitc CCTE Shafer MEA dev per burst spike percent: key: 1 (active); 0 (inactive); for hitc CCTE Shafer MEA dev per network spike spike number mean: key: 1 (active); 0 (inactive); for hitc CCTE Shafer MEA dev per network spike spike percent: key: 1 (active); 0 (inactive); for hitc CCTE Shafer MEA dev spike duration mean: key: 1 (active); 0 (inactive)

Structure (SMILES): CC(=O)Nc1ccc(O)cc1 [Acetaminophen]
- Bioactivity across the 10 MEA endpoints of the BrainSphere MEA assay (in words) [1]: inactive in both assays; also recorded: inactive across all endpoints; also recorded: inactivity across all metrics in both models
- Bioactivity trend over time for MFR, mean spike amplitude and burst frequency (qualitative) [1]: no clear chemical-dependent effects were observed
- Hits [1]: 0
- Percent active [1]: 0%
- hitc Mean.Spheroid.Burst.Duration [1]: 0
- hitc Mean.Spheroid.Burst.ISI [1]: 0
- hitc Mean.Spheroid.Burst.Peak.Firing.Rate [1]: 0
- hitc Mean.Spheroid.Firing.Rate [1]: 0
- hitc Mean.Spheroid.IBI [1]: 0
- hitc Mean.Spheroid.Nonburst.ISI [1]: 0
- hitc Mean.Spheroid.Spikes.per.Burst [1]: 0
- hitc Mean.Spheroid.Spikes.per.Burst.per.Electrode [1]: 0
- hitc Spheroid.Burst.Frequency [1]: 0
- hitc Spheroid.Spike.Amplitude.90th.Percentile [1]: 0
- EC (benchmark response 1.349 SD) ([1]; read-out: BMD Mean.Spheroid.Burst.ISI): 415 µM
- EC (benchmark response 1.349 SD) ([1]; read-out: BMD Mean.Spheroid.Nonburst.ISI): 163 µM
- AC50 ([1]; read-out: ac50 Mean.Spheroid.Burst.Duration): 4700 nM
- AC50 ([1]; read-out: ac50 Mean.Spheroid.Burst.ISI): 45000 nM
- AC50 ([1]; read-out: ac50 Mean.Spheroid.Burst.Peak.Firing.Rate): 370 nM
- AC50 ([1]; read-out: ac50 Mean.Spheroid.IBI): 1800 nM
- AC50 ([1]; read-out: ac50 Mean.Spheroid.Spikes.per.Burst): 6000 nM
- AC50 ([1]; read-out: ac50 Mean.Spheroid.Spikes.per.Burst.per.Electrode): 390 nM
- AC50 ([1]; read-out: ac50 Spheroid.Burst.Frequency): 610 nM
- AC50 ([1]; read-out: ac50 Spheroid.Spike.Amplitude.90th.Percentile): 240 nM
- hitc CCTE_Shafer_MEA_dev_active_electrodes_number ([2]; rNFA mc5 hit call, aenm active_electrodes_number): 0
- hitc CCTE_Shafer_MEA_dev_burst_duration_mean ([2]; rNFA mc5 hit call, aenm burst_duration_mean): 0
- hitc CCTE_Shafer_MEA_dev_burst_rate ([2]; rNFA mc5 hit call, aenm burst_rate): 0
- hitc CCTE_Shafer_MEA_dev_bursting_electrodes_number ([2]; rNFA mc5 hit call, aenm bursting_electrodes_number): 0
- hitc CCTE_Shafer_MEA_dev_correlation_coefficient_mean ([2]; rNFA mc5 hit call, aenm correlation_coefficient_mean): 0
- hitc CCTE_Shafer_MEA_dev_firing_rate_mean ([2]; rNFA mc5 hit call, aenm firing_rate_mean): 0
- hitc CCTE_Shafer_MEA_dev_inter_network_spike_interval_mean ([2]; rNFA mc5 hit call, aenm inter_network_spike_interval_mean): 0
- hitc CCTE_Shafer_MEA_dev_interburst_interval_mean ([2]; rNFA mc5 hit call, aenm interburst_interval_mean): 0
- hitc CCTE_Shafer_MEA_dev_mutual_information_norm ([2]; rNFA mc5 hit call, aenm mutual_information_norm): 0
- hitc CCTE_Shafer_MEA_dev_network_spike_duration_std ([2]; rNFA mc5 hit call, aenm network_spike_duration_std): 0
- hitc CCTE_Shafer_MEA_dev_network_spike_number ([2]; rNFA mc5 hit call, aenm network_spike_number): 0
- hitc CCTE_Shafer_MEA_dev_network_spike_peak ([2]; rNFA mc5 hit call, aenm network_spike_peak): 0
- hitc CCTE_Shafer_MEA_dev_per_burst_interspike_interval ([2]; rNFA mc5 hit call, aenm per_burst_interspike_interval): 0
- hitc CCTE_Shafer_MEA_dev_per_burst_spike_percent ([2]; rNFA mc5 hit call, aenm per_burst_spike_percent): 0
- hitc CCTE_Shafer_MEA_dev_per_network_spike_spike_number_mean ([2]; rNFA mc5 hit call, aenm per_network_spike_spike_number_mean): 0
- hitc CCTE_Shafer_MEA_dev_per_network_spike_spike_percent ([2]; rNFA mc5 hit call, aenm per_network_spike_spike_percent): 0
- hitc CCTE_Shafer_MEA_dev_spike_duration_mean ([2]; rNFA mc5 hit call, aenm spike_duration_mean): 0
- Bioactivity in the rNFA (in words) [2]: inactivity across all metrics in both models
- Bioactivity in the rNFA (in words) ([2]; listed as acetaminophen): inactive in both assays; also recorded: did not
